Measurements taken from PubChem BioAssay AID248 (DTP/NCI, 2004).
Where “and” joins values, the source holds several entries; their conditions need not be identical. Equal values may be shown once. Inconclusive results and toxic doses are left out.

Test system: L1210 leukemia ip in BDF1 mice, survival T/C
Assay: NCI In Vivo Anticancer Drug Screen. Data for tumor model L1210 Leukemia (intraperitoneal) in B6D2F1 (BDF1) mice
Conditions: endpoint: mean survival time, higher = longer survival
In short: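 Tumor was transplanted into mice, which were then dosed with test compound or vehicle alone. Survival was recorded for each group, and the treated figure was expressed relative to the control figure.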

[1] = dose: 100.0 mg/kg/injection, schedule: Q01DX009 (ip), vehicle: Klucel (hydroxypropylcellulose) (HPC)
[2] = dose: 100.0 mg/kg/injection, schedule: Q04DX003 (ip), vehicle: Klucel (hydroxypropylcellulose) (HPC)
[3] = dose: 200.0 mg/kg/injection, schedule: Q01DX009 (ip), vehicle: Klucel (hydroxypropylcellulose) (HPC)
[4] = dose: 200.0 mg/kg/injection, schedule: Q04DX003 (ip), vehicle: Klucel (hydroxypropylcellulose) (HPC)
[5] = dose: 400.0 mg/kg/injection, schedule: Q04DX003 (ip), vehicle: Klucel (hydroxypropylcellulose) (HPC)
[6] = dose: 100.0 mg/kg/injection, schedule: Q04DX003 (ip), vehicle: saline with Tween-80
[7] = dose: 200.0 mg/kg/injection, schedule: Q04DX003 (ip), vehicle: saline with Tween-80
[8] = dose: 400.0 mg/kg/injection, schedule: Q01DX009 (ip), vehicle: Klucel (hydroxypropylcellulose) (HPC)
[9] = dose: 50.0 mg/kg/injection, schedule: Q01DX009 (ip), vehicle: Klucel (hydroxypropylcellulose) (HPC)
[10] = dose: 100.0 mg/kg/injection, schedule: Q01DX001 (ip), vehicle: other
[11] = dose: 200.0 mg/kg/injection, schedule: Q01DX001 (ip), vehicle: other
[12] = dose: 25.0 mg/kg/injection, schedule: Q01DX009 (ip), vehicle: saline with Tween-80
[13] = dose: 50.0 mg/kg/injection, schedule: Q01DX009 (ip), vehicle: saline with Tween-80
[14] = dose: 400.0 mg/kg/injection, schedule: Q04DX003 (ip), vehicle: saline with Tween-80
[15] = dose: 100.0 mg/kg/injection, schedule: Q01DX009 (ip), vehicle: saline
[16] = dose: 100.0 mg/kg/injection, schedule: Q04DX003 (ip), vehicle: saline
[17] = dose: 200.0 mg/kg/injection, schedule: Q04DX003 (ip), vehicle: saline
[18] = dose: 100.0 mg/kg/injection, schedule: Q01DX001 (ip), vehicle: saline

In the case of CCOC(=O)C(Br)C(Br)c1cccc([N+](=O)[O-])c1 (stereo unspecified), the T/C (dose: 100.0 mg/kg/injection, schedule: Q01DX009 (ip), vehicle: other) is reported as 105 % of control, the T/C (dose: 100.0 mg/kg/injection, schedule: Q04DX003 (ip), vehicle: other) is reported as 106 % of control and the T/C (dose: 200.0 mg/kg/injection, schedule: Q04DX003 (ip), vehicle: other) is reported as 94 % of control. The T/C (dose: 400.0 mg/kg/injection, schedule: Q04DX003 (ip), vehicle: other) was 86 % of control.

For Cc1ccc(NC(=O)c2ccc(Cl)cc2)c(C)c1, the T/C [1] was 94 % of control, the T/C [2] was 106 % of control and the T/C [3] was 100 % of control. The T/C [4] was 96 % of control and the T/C [5] was 98 % of control.

With Cc1cc(C)c(O)c(CN(C)C)c1 the T/C [6] was 101 % of control and the T/C [7] was 98 % of control.

In the case of O/N=C\c1cc2c3c(c1)CCCN3CCC2, the T/C [1] is reported as 95 % of control, the T/C [3] is reported as 91 % of control and the T/C [8] is reported as 86 % of control.

Nc1cccc(OCCCOc2cccc(N)c2)c1 was tested, and the T/C [9] was 96 % of control, the T/C [1] was 101 % of control and the T/C [3] was 90 % of control.

With CCOC(=O)C(C1=NC(C)(C)CC(C)O1)C(C[N+](=O)[O-])c1ccccc1 (stereo unspecified) the T/C [10] was 97 % of control, the T/C [11] was 97 % of control and the T/C (dose: 400.0 mg/kg/injection, schedule: Q01DX001 (ip), vehicle: other) was 100 % of control.

For O=C(O)CCCCCNC(=O)OCc1ccccc1, the T/C (dose: 100.0 mg/kg/injection, schedule: Q01DX009 (ip), vehicle: gum acacia) was 102 % of control, the T/C (dose: 100.0 mg/kg/injection, schedule: Q04DX003 (ip), vehicle: gum acacia) was 91 % of control and the T/C (dose: 200.0 mg/kg/injection, schedule: Q01DX009 (ip), vehicle: gum acacia) was 103 % of control. For the same molecule, the T/C (dose: 200.0 mg/kg/injection, schedule: Q04DX003 (ip), vehicle: gum acacia) was 93 % of control, the T/C (dose: 400.0 mg/kg/injection, schedule: Q01DX009 (ip), vehicle: gum acacia) was 86 % of control and the T/C (dose: 400.0 mg/kg/injection, schedule: Q04DX003 (ip), vehicle: gum acacia) was 91 % of control.

For COc1ccc(C(C)=O)cc1OCc1ccccc1, the T/C (dose: 100.0 mg/kg/injection, schedule: Q01DX009 (ip), vehicle: water) was 112 % of control, the T/C (dose: 100.0 mg/kg/injection, schedule: Q04DX003 (ip), vehicle: water) was 98 % of control and the T/C (dose: 200.0 mg/kg/injection, schedule: Q01DX009 (ip), vehicle: water) was 108 % of control. For the same molecule, the T/C (dose: 200.0 mg/kg/injection, schedule: Q04DX003 (ip), vehicle: water) was 100 % of control, the T/C (dose: 400.0 mg/kg/injection, schedule: Q01DX009 (ip), vehicle: water) was 103 % of control and the T/C (dose: 400.0 mg/kg/injection, schedule: Q04DX003 (ip), vehicle: water) was 93 % of control.

For COC(=O)C(CSCSC)NC(=O)/C=C/c1ccco1 (stereo unspecified), the T/C [12] was 107 % of control, the T/C [13] was 107 % of control and the T/C (dose: 100.0 mg/kg/injection, schedule: Q01DX009 (ip), vehicle: saline with Tween-80) was 102 % of control and 91 % of control. For the same molecule, the T/C [6] was 93 % of control, the T/C [7] was 101 % of control and the T/C [14] was 95 % of control.

With Cc1c(CNc2ccc(Cl)c(C(=O)NC(CC(=O)O)C(=O)O)c2)ccc2nc(N)nc(N)c12 (stereo unspecified) the T/C (dose: 1.5 mg/kg/injection, schedule: Q01DX009 (ip), vehicle: Klucel (hydroxypropylcellulose) (HPC)) was 110 % of control, the T/C (dose: 3.0 mg/kg/injection, schedule: Q01DX009 (ip), vehicle: Klucel (hydroxypropylcellulose) (HPC)) was 115 % of control and the T/C (dose: 3.13 mg/kg/injection, schedule: Q01DX009 (ip), vehicle: Klucel (hydroxypropylcellulose) (HPC)) was 120 % of control. For the same molecule, the T/C (dose: 6.0 mg/kg/injection, schedule: Q01DX009 (ip), vehicle: Klucel (hydroxypropylcellulose) (HPC)) was 110 % of control and 92 % of control, the T/C (dose: 12.5 mg/kg/injection, schedule: Q01DX009 (ip), vehicle: Klucel (hydroxypropylcellulose) (HPC)) was 160 % of control and the T/C [9] was 168 % of control. The T/C [1] was 97 % of control and 100 % of control, the T/C [15] was 162 % of control and the T/C (dose: 267.0 mg/kg/injection, schedule: Q01DX001 (ip), vehicle: saline) was 122 % of control.

O=c1oc2cc(O)ccc2c2ccccc12 was tested, and the T/C [2] was 98 % of control, the T/C [4] was 96 % of control and the T/C [5] was 102 % of control.

CCN(CC)CCOC(=O)c1cccc2[nH]ccc12 was tested, and the T/C [16] was 104 % of control and the T/C [17] was 109 % of control.

With O=C(O)CNc1cc(S(=O)(=O)O)cc2cc(S(=O)(=O)O)c(N=Nc3ccc(S(=O)(=O)O)c4ccccc34)c(O)c12 the T/C [18] was 98 % of control, the T/C [16] was 106 % of control and the T/C (dose: 200.0 mg/kg/injection, schedule: Q01DX001 (ip), vehicle: saline) was 95 % of control. For the same molecule, the T/C [17] was 90 % of control, the T/C (dose: 400.0 mg/kg/injection, schedule: Q01DX001 (ip), vehicle: saline) was 98 % of control and the T/C (dose: 400.0 mg/kg/injection, schedule: Q04DX003 (ip), vehicle: saline) was 95 % of control.

CCCC[N+](CC)(CC)CCOC(=O)C1C2CC3OC(=O)C1C3C2 (stereo unspecified) was tested, and the T/C [16] was 101 % of control.

For N#C/C=C/C=C/C#N, the T/C (dose: 75.0 mg/kg/injection, schedule: Q01DX001 (ip), vehicle: other) was 98 % of control and the T/C (dose: 150.0 mg/kg/injection, schedule: Q01DX001 (ip), vehicle: other) was 103 % of control.

COc1ccc(OC)c(NC(=O)Nc2ccc(CCO)cc2)c1 was tested, and the T/C [15] was 99 % of control, the T/C (dose: 200.0 mg/kg/injection, schedule: Q01DX009 (ip), vehicle: saline) was 102 % of control and the T/C (dose: 400.0 mg/kg/injection, schedule: Q01DX009 (ip), vehicle: saline) was 103 % of control.

For CCc1c[n+]([O-])c(C)cc1C(=O)O, the T/C [1] was 92 % of control, the T/C [2] was 97 % of control and the T/C [3] was 92 % of control. The T/C [4] was 95 % of control, the T/C [8] was 92 % of control and the T/C [5] was 95 % of control.

In the case of CO/N=C(\C)CSS(=O)(=O)OC, the T/C (dose: 100.0 mg/kg/injection, schedule: Q04DX002 (ip), vehicle: saline) is reported as 93 % of control, the T/C (dose: 200.0 mg/kg/injection, schedule: Q04DX002 (ip), vehicle: saline) is reported as 96 % of control and the T/C (dose: 400.0 mg/kg/injection, schedule: Q04DX002 (ip), vehicle: saline) is reported as 86 % of control.

In the case of O=C1C(=O)c2ccccc2C(O)=C1CCCCCCCCCC[S+](CCO)CCO, the T/C [10] is reported as 104 % of control and the T/C [11] is reported as 101 % of control.

With COc1ccc2nc3cc(Cl)ccc3c(Nc3ccc(O)c(CN(CCCl)CCCl)c3)c2c1 the T/C (dose: 0.3 mg/kg/injection, schedule: Q01DX Z (ip), vehicle: saline) was 118 % of control, the T/C (dose: 4.8 mg/kg/injection, schedule: Q01DX Z (ip), vehicle: saline) was 94 % of control and the T/C (dose: 5.0 mg/kg/injection, schedule: Q01DX001 (ip), vehicle: saline) was 111 % of control. For the same molecule, the T/C (dose: 7.5 mg/kg/injection, schedule: Q04DX003 (ip), vehicle: saline) was 120 % of control, the T/C (dose: 10.0 mg/kg/injection, schedule: Q01DX001 (ip), vehicle: saline) was 108 % of control and the T/C (dose: 20.0 mg/kg/injection, schedule: Q01DX001 (ip), vehicle: saline) was 104 % of control. For the same molecule, the T/C [18] was 87 % of control.

In the case of Nc1nc(N)nc(-c2ccccc2N=NN2CCOCC2)n1, the T/C [2] is reported as 103 % of control, the T/C [4] is reported as 101 % of control and the T/C [5] is reported as 101 % of control.

With Cc1cc(OC(=O)Nc2cccc(Cl)c2C)ccc1[N+](=O)[O-] the T/C [12] was 104 % of control and 111 % of control, the T/C [13] was 97 % of control and 103 % of control and the T/C (dose: 100.0 mg/kg/injection, schedule: Q04DX002 (ip), vehicle: saline with Tween-80) was 100 % of control and 107 % of control. The T/C [6] was 105 % of control, the T/C (dose: 200.0 mg/kg/injection, schedule: Q01DX009 (ip), vehicle: saline with Tween-80) was 89 % of control and the T/C (dose: 200.0 mg/kg/injection, schedule: Q04DX002 (ip), vehicle: saline with Tween-80) was 101 % of control and 104 % of control. For the same molecule, the T/C [7] was 100 % of control and the T/C (dose: 400.0 mg/kg/injection, schedule: Q04DX002 (ip), vehicle: saline with Tween-80) was 93 % of control.

C=CCNC(=S)NNC(=S)NNc1ccccc1 was tested, and the T/C (dose: 100.0 mg/kg/injection, schedule: Q01DX009 (ip), vehicle: acetone) was 98 % of control, the T/C [6] was 118 % of control and the T/C (dose: 200.0 mg/kg/injection, schedule: Q01DX009 (ip), vehicle: acetone) was 90 % of control. For the same molecule, the T/C [7] was 93 % of control and the T/C [14] was 96 % of control.

In the case of CC(=O)c1cccc(NC(=O)Nc2ccc(I)cc2)c1, the T/C [1] is reported as 97 % of control, the T/C [3] is reported as 96 % of control and the T/C [8] is reported as 97 % of control.
